Measured values from US20090191193A1, “Aryl Vinyl Sulfides, Sulfones, Sulfoxides and Sulfonamides, Derivatives Thereof and Therapeutic Uses Thereof” (TEMPLE UNIVERSITY-OF THE COMMONWEALTH SYSTEM OF HIGHER …, priority 2006, published 2009).

Experiments:
[1] = tested on: DLD1 (colon carcinoma); experiment: Effect on tumor cell lines, viable cell count by trypan blue exclusion (Latham et al.): DLD1; assay type: cell-based; settings: Homo sapiens, DLD-1, DLD1 colon carcinoma cells, viable cell count 96 hours after treatment
Experimental: (§1) The effect of the compounds of the invention on tumor cells was determined by the assay described by Latham et al., Oncogene 12:827-837 (1996). Tumor cells DU145 (prostate cancer), K562 (chronic myelogenous leukaemia), BT20 (breast carcinoma), H157 (non small cell lung carcinoma), or DLD1 (colon carcinoma) were plated in 6-well dishes at a cell density of 1.0×10^5 cells per 35-mm^2 well. The plated cells were treated 24 hours later with a compound of the invention dissolved in DMSO at multiple concentrations ranging from 100 nM to 10 μM. The total number of viable cells was determined 96 hours later by trypsinizing the wells and counting the number of viable cells, as determined by trypan blue exclusion, using a hemacytometer. Normal HFL cells were treated with the same compounds under the same conditions of concentration and time.

[2] = tested on: H157 (non small cell lung carcinoma); experiment: Effect on tumor cell lines, viable cell count by trypan blue exclusion (Latham et al.): H157; assay type: cell-based; settings: Homo sapiens, NCI-H157, H157 non small cell lung carcinoma cells, viable cell count 96 hours after treatment
Experimental: as §1

[3] = tested on: DU145 (prostate cancer); experiment: Effect on tumor cell lines, viable cell count by trypan blue exclusion (Latham et al.): DU145; assay type: cell-based; settings: Homo sapiens, DU-145, 96 h, DU145 prostate cancer cells, viable cell count 96 hours after treatment
[4] = tested on: BT20 (breast carcinoma); experiment: Effect on tumor cell lines, viable cell count by trypan blue exclusion (Latham et al.): BT20; assay type: cell-based; settings: Homo sapiens, BT-20, BT20 breast carcinoma cells, viable cell count 96 hours after treatment
Experimental: as §1

[5] = tested on: K562 (chronic myelogenous leukaemia); experiment: Effect on tumor cell lines, viable cell count by trypan blue exclusion (Latham et al.): K562; assay type: cell-based; settings: Homo sapiens, K562, 96 h, K562 chronic myelogenous leukaemia cells, viable cell count 96 hours after treatment

Compound	IC50 [1]	IC50 [2]	IC50 [3]	melting point	IC50 [4]	IC50 [5]
COc1cccc(OC)c1/C=C(\C(N)=O)S(=O)(=O)Cc1ccc(Cl)cc1 [Example 175]	10 to 20 µM	10 to 20 µM	10 to 20 µM	150 to 154 °C	10 to 20 µM	
COc1ccc(CS(=O)(=O)/C(=C/c2ccc(F)cc2)C(N)=O)cc1 [Example 172]	> 20 µM	> 20 µM	> 20 µM	158 to 161 °C	> 20 µM	
NC(=O)/C(=C\c1ccc(Cl)cc1)S(=O)(=O)Cc1ccc(Cl)cc1Cl [Example 150]	> 20 µM	> 20 µM	> 20 µM	201 to 205 °C	> 20 µM	
COc1ccc(CS(=O)(=O)/C(=C/c2c(OC)cccc2OC)C(N)=O)cc1 [Example 173]	> 20 µM	> 20 µM	> 20 µM	166 to 168 °C	> 20 µM	
COc1ccc(/C=C(\C#N)S(=O)(=O)Cc2ccc(Cl)cc2Cl)cc1OC [Example 110]			50 to 100 µM	149 to 153 °C		25 to 50 µM
N#C/C(=C\c1ccc(Br)cc1)S(=O)(=O)Cc1ccc(Cl)cc1Cl [Example 98]			50 to 100 µM	126 to 138 °C		25 to 50 µM
Cc1ccc(/C=C(\C#N)S(=O)(=O)Cc2ccc(Cl)cc2)cc1C [Example 66]			50 to 100 µM	191 to 202 °C		50 to 100 µM
COc1cc(/C=C(\C#N)S(=O)(=O)Cc2ccc(Cl)cc2)cc(OC)c1 [Example 56]			50 to 100 µM	155 to 165 °C		25 to 50 µM
Cc1ccc(C)c(/C=C(\C#N)S(=O)(=O)Cc2ccc(Cl)cc2)c1 [Example 40]			25 to 50 µM	123 to 126 °C		1 to 10 µM
N#C/C(=C\c1ccccc1O)S(=O)(=O)Cc1ccccc1 [Example 125]			50 to 100 µM	135 to 138 °C		> 100 µM
CC(=O)Oc1ccc(/C=C(\C#N)S(=O)(=O)Cc2ccc(F)cc2)cc1 [Example 84]			1 to 10 µM	116 to 125 °C		1 to 10 µM
N#C/C(=C\c1ccc(Cl)cc1)S(=O)(=O)Cc1ccc(F)cc1 [Example 89]			50 to 100 µM	150 to 155 °C		50 to 100 µM
N#C/C(=C\c1cccc(O)c1)S(=O)(=O)Cc1ccccc1 [Example 124]			> 100 µM	132 to 135 °C		50 to 100 µM
CCOc1ccc(/C=C(\C#N)S(=O)(=O)Cc2ccc(Cl)cc2)cc1OC [Example 55]			10 to 25 µM	143 to 148 °C		10 to 25 µM
Cc1ccoc1/C=C(\C#N)S(=O)(=O)Cc1ccccc1 [Example 128]			> 100 µM	118 to 121 °C		50 to 100 µM
COc1cc(OC)c(/C=C(\C(N)=O)S(=O)(=O)Cc2ccc(Cl)cc2)c(OC)c1 [Example 174]	> 20 µM	> 20 µM	> 20 µM	176 to 178 °C	> 20 µM	
COc1ccc(CS(=O)(=O)/C(C#N)=C/c2cc(OC)cc(OC)c2)cc1 [Example 149]			> 100 µM	135 to 140 °C		50 to 100 µM
N#C/C(=C\c1ccccc1O)S(=O)(=O)Cc1ccc(Cl)cc1Cl [Example 108]			> 100 µM	219 to 223 °C		> 100 µM
COc1cccc(OC)c1/C=C(\C#N)S(=O)(=O)Cc1ccc(Br)cc1 [Example 18]			25 µM	156 to 158 °C		10 µM
N#C/C(=C\c1ccc(O)c([N+](=O)[O-])c1)S(=O)(=O)Cc1ccc(Cl)cc1Cl [Example 109]			> 100 µM	169 to 171 °C		> 100 µM
N#C/C(=C\c1ccoc1)S(=O)(=O)Cc1cccc(Br)c1 [Example 115]			> 100 µM	128 to 132 °C		> 100 µM
CCOc1ccc(/C=C(\C#N)S(=O)(=O)Cc2ccc(Cl)cc2Cl)cc1OC [Example 94]			50 to 100 µM	126 to 131 °C		25 to 50 µM
Cc1ccc(/C=C(\C#N)S(=O)(=O)Cc2ccc(Cl)cc2Cl)cc1C [Example 97]			> 100 µM	126 to 142 °C		> 100 µM
COc1cc(/C=C(\C#N)S(=O)(=O)Cc2ccc(Cl)cc2Cl)cc(OC)c1OC [Example 105]			25 to 50 µM	147 to 152 °C		10 to 25 µM
COc1ccc(/C=C(\C#N)S(=O)(=O)Cc2ccc(F)cc2)cc1O [Example 80]			> 100 µM	193 to 205 °C		50 to 100 µM
COc1ccc(/C=C(\C#N)S(=O)(=O)Cc2ccc(Cl)cc2Cl)c(F)c1 [Example 65]			50 to 100 µM	140 to 155 °C		50 to 100 µM
COc1ccc(/C=C(\C#N)S(=O)(=O)Cc2ccccc2)c(F)c1 [Example 129]			> 100 µM	161 to 166 °C		50 to 100 µM

Continued, values first:

IC50 [1]	IC50 [2]	IC50 [3]	melting point	IC50 [4]	IC50 [5]	Compound
10 to 20 µM	10 to 20 µM	10 to 20 µM	168 to 172 °C	10 to 20 µM		COc1cccc(OC)c1/C=C(\C(N)=O)S(=O)(=O)c1ccccc1 [Example 179]
> 20 µM	> 20 µM	> 20 µM	190 to 192 °C	> 20 µM		NC(=O)/C(=C\c1ccc([N+](=O)[O-])cc1)S(=O)(=O)Cc1ccc(Cl)cc1 [Example 176]
> 20 µM	> 20 µM	> 20 µM	160 to 162 °C	> 20 µM		COc1ccc(S(=O)(=O)/C(=C/c2c(OC)cccc2OC)C(N)=O)cc1 [Example 183]
1 to 10 µM	1 to 10 µM	1 to 10 µM	151 to 154 °C	1 to 10 µM		NC(=O)/C(=C\c1ccc(F)cc1)S(=O)(=O)c1ccccc1 [Example 177]
		25 to 50 µM	182 to 184 °C		10 to 25 µM	N#C/C(=C\c1ccccc1Cl)S(=O)(=O)Nc1ccc(F)cc1 [Example 235]
		10 to 25 µM	111 to 112 °C		10 to 25 µM	COc1ccc(NS(=O)(=O)/C(C#N)=C/c2ccccc2OCc2ccccc2)cc1 [Example 277]
		50 to 100 µM	188 to 190 °C		50 to 100 µM	CCOc1ccc(/C=C(\C#N)S(=O)(=O)Nc2ccc(Br)cc2)cc1OC [Example 219]
		50 to 100 µM	192 to 194 °C		25 to 50 µM	N#C/C(=C\c1ccccc1Cl)S(=O)(=O)Nc1ccc(Br)cc1 [Example 227]
		10 to 25 µM	100 to 102 °C		1 to 10 µM	COc1ccc(NS(=O)(=O)/C(C#N)=C/c2c(F)c(F)c(F)c(F)c2F)cc1 [Example 192]
		> 100 µM	166 to 169 °C		50 to 100 µM	COc1ccc(NS(=O)(=O)/C(C#N)=C/c2ccc(N(C)C)cc2)cc1 [Example 280]
		25 to 50 µM	128 to 130 °C		25 to 50 µM	N#C/C(=C\c1ccccc1OCc1ccccc1)S(=O)(=O)Nc1ccc(Br)cc1 [Example 213]
		> 100 µM	136 to 139 °C		50 to 100 µM	COc1ccccc1/C=C(\C#N)S(=O)(=O)Nc1ccc(C)cc1C [Example 266, (E)-2-[(2,4-dimethylphenyl)sulfamoyl]-3-(2-methoxyphenyl)acrylonitrile]
		25 to 50 µM	116 to 119 °C		1 to 10 µM	Cc1ccc(NS(=O)(=O)/C(C#N)=C/c2ccccc2Cl)c(C)c1 [Example 256]
		50 to 100 µM	172 to 174 °C		25 to 50 µM	Cc1ccc(C)c(/C=C(\C#N)S(=O)(=O)Nc2ccc(Br)cc2)c1 [Example 229]
		1 to 10 µM	231 to 235 °C		1 to 10 µM	Cc1ccc(NS(=O)(=O)/C(C#N)=C/c2c[nH]c3ccc(Br)cc23)c(C)c1 [Example 269]
> 20 µM	> 20 µM	> 20 µM	172 to 174 °C	> 20 µM		COc1ccc(S(=O)(=O)/C(=C/c2ccc([N+](=O)[O-])cc2)C(N)=O)cc1 [Example 184]
		> 100 µM	167 to 169 °C		50 to 100 µM	N#C/C(=C\c1c[nH]c2ccc(Br)cc12)S(=O)(=O)Nc1ccc(F)cc1 [Example 250]
		50 to 100 µM	95 to 96 °C		25 to 50 µM	COc1ccc(NS(=O)(=O)/C(C#N)=C/c2ccc(Cl)cc2)cc1 [Example 290]
		50 to 100 µM	158 to 161 °C		50 to 100 µM	Cc1ccc(NS(=O)(=O)/C(C#N)=C/c2ccc(Cl)cc2)c(C)c1 [Example 267]
